How the values were obtained:
human KDELR1 N54K/E117Q = target: T1, human KDELR1 N54K/E117Q (Homo sapiens, UniProt P24390, E117Q/N54K); experiment: ER retrieval assay, KDELR1 N54K/E117Q-GFP; assay type: cell-based; settings: COS-7 cells
T1 construct: expressed in transfected cells; host or cells: COS-7
Excerpt: (§1) To create KDELR1-GFP and KDELR2-GFP, the reading frames for Homo sapiens KDELR1 (Uniprot: P24390) and KDELR2 (Uniprot: P33947) were cloned into the pEF5/FRT low level mammalian expression vector with a C-terminal 20 amino acid linker made up of 5 copies of Gly-Ser-Ser-Ser followed by GFP. Specific point mutations were introduced using the Quickchange protocol (Stratagene) and are described in the key resources table and figures. To create the mScarlet-KDEL^sec ligand construct, mScarlet with an N-terminal hGH signal peptide and the 16 C-terminal residues of human BiP at its C-terminus, containing the KDEL signal, was cloned into the pcDNA3.1 vector. […] The Golgi marker protein TGN46 was detected by antibody (sheep anti-TGN46 AHP500G; AbD Serotec) and an Alexa 647 conjugated secondary anti-sheep secondary (A-21448, Invitrogen). In Figure 1d and e, endogenous KDELR was detected by antibody (mouse anti-KDELR ADI-VAA-PT048; Enzo Life Sciences) and Alexa 488 conjugated anti-mouse secondary antibody (A-21202, Invitrogen). For retrieval assays in other figures, KDELR-GFP fusion proteins were directly detected by fluorescence. The mScarlet-xDEL fusion proteins were directly detected by fluorescence. […] The fraction of KDEL receptor in the Golgi apparatus was calculated by dividing the Golgi signal by the total cell signal. […]

human KDELR1 D50N = target: T2, human KDELR1 D50N (Homo sapiens, UniProt P24390, D50N); experiment: ER retrieval assay, KDELR1 D50N-GFP; assay type: cell-based; settings: COS-7 cells
T2 construct: expressed in transfected cells; host or cells: COS-7
T2 sequence (P24390 whole entry D50N): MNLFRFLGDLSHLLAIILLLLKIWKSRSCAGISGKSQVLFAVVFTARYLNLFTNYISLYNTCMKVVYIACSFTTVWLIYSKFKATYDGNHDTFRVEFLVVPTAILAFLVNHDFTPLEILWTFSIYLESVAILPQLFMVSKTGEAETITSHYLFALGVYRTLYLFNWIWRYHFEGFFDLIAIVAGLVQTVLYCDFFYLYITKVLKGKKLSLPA
Excerpt: as §1

T1 sequence (P24390 whole entry N54K/E117Q): as the sequence (P24390 whole entry D50N) above, with N50D, N54K, E117Q counted along it

ADEL [pcDNA3.1 hGHss-mScarlet-H. sapiens BiP639-654K651A (ADEL^SEC), secreted mScarlet fusion with human BiP C-terminus, ADEL signal]
ligand-induced receptor retrieval to the ER (in words) (human KDELR1 N54K/E117Q): switched specificity towards ADEL and DDEL
ligand-induced receptor retrieval to the ER (in words) (human KDELR1 D50N): abolished the response to all signal variants
